Some results are limits rather than exact numbers.

The target of one assay is T1, hTRPC5 (Homo sapiens, UniProt Q9UL62).
T1 construct: expressed in transfected cells; host or cells: HEK293 TREx cells with inducible TRPC5 expression
T1 sequence (Q9UL62 1-973): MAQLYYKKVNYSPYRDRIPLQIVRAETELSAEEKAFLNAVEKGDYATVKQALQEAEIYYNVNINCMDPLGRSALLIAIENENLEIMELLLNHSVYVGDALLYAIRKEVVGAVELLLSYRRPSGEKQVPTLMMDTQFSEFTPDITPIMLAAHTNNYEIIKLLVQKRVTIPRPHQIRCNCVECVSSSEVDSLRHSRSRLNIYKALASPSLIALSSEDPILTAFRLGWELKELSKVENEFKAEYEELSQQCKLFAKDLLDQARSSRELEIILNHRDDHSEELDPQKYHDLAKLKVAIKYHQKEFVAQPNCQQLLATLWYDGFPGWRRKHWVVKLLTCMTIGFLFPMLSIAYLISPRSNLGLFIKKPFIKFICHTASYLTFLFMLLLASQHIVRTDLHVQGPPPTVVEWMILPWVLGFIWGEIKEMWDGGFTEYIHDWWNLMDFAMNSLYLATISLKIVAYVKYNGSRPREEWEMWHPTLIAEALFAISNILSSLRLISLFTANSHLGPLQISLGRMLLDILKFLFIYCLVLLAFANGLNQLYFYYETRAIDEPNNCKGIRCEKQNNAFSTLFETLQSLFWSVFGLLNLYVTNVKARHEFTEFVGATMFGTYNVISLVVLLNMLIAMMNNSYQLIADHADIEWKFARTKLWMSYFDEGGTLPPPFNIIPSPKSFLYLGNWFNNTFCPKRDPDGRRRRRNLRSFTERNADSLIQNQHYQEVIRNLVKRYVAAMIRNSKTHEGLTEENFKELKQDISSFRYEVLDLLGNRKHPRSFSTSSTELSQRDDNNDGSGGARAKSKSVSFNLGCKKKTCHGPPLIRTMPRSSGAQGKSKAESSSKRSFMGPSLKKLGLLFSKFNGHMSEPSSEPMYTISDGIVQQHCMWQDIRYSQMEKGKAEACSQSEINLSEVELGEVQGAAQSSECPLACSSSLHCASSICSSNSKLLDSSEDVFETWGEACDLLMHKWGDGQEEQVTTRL
As to the kind of experiment: Whole-cell patch clamp, block of LaCl3-activated TRPC5 inward current. In kind it is cell-based. The settings on record: TRPC5-expressing HEK293 TREx cells, 80 μM LaCl3, inward current, IC50 estimated from 5 μM and 500 nM, read-out: hTRPC5 Patch La3+ Inwd (nM) (All Batches). The procedure, abridged:
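Whole-cell recordings in induced TRPC5-expressing HEK293 TREx cells, holding −40 mV, 400 ms ramps −120 to +100 mV every 5 s; current activated by 80 μM external LaCl3 and 1,400 nM pipette free Ca2+ (pH 7.2 internal, 7.4 external). Inward block at −80 mV, with LaCl3 present; IC50 estimated from testing at 5 μM and 500 nM.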
Regarding `Cn1c(=O)c2c(nc(Oc3cccc(OC(F)(F)F)c3)n2Cc2ccc(Cl)cc2)n(C)c1=O` [Compound 142, 7-(4-chlorobenzyl)-1,3-dimethyl-8-(3-(trifluoromethoxy)phenoxy)-1H-purine-2,6(3H,7H)-dione], the IC50 was below 100 nM.
As for `COc1cccc(Cn2c(Oc3ccc(Br)cc3)nc3c2c(=O)n(C)c(=O)n3C)c1` [Compound 194, 8-(4-bromophenoxy)-7-(3-methoxybenzyl)-1,3-dimethyl-1H-purine-2,6(3H,7H)-dione], the IC50 is 1000 to 2000 nM.
Consider `Cn1c(=O)c2c(nc(Oc3cccc(C(F)(F)F)c3)n2CCCc2ccc(Cl)cc2)n(C)c1=O` [Compound 195], for which the IC50 was 2000 to 10000 nM.
The same measure, in the same setting: next, `Cn1c(=O)c2c(nc(Oc3cccc(C(F)(F)F)c3)n2-c2ccc(Cl)cc2)n(C)c1=O` [Compound 196]: 2000 to 10000 nM; `Cn1c(=O)c2c(nc(Oc3cccc(OC(F)(F)F)c3)n2Cc2ccc(Cl)c(Cl)c2)n(C)c1=O` [Compound 197, 7-(3,4-dichlorobenzyl)-1,3-dimethyl-8-(3-(trifluoromethoxy)phenoxy)-1H-purine-2,6(3H,7H)-dione]: below 100 nM.
Still for that read-out and setting: next, `Cn1c(=O)c2c(nc(Oc3cccc(OC(F)(F)F)c3)n2Cc2ccc(Cl)c(F)c2)n(C)c1=O` [Compound 198, 7-(4-chloro-3-fluorobenzyl)-1,3-dimethyl-8-(3-(trifluoromethoxy)phenoxy)-1H-purine-2,6(3H,7H)-dione]: below 100 nM.
On the same count and under the same terms, next, `Cc1ccc(Oc2nc3c(c(=O)n(C)c(=O)n3C)n2Cc2ccc(Cl)cc2)cc1C(F)(F)F` [Compound 199]: 2000 to 10000 nM; `Cn1c(=O)c2c(nc(Oc3cc(Cl)cc(OC(F)(F)F)c3)n2Cc2ccc(Cl)cc2)n(C)c1=O` [Compound 202, 8-(3-chloro-5-(trifluoromethoxy)phenoxy)-7-(4-chlorobenzyl)-1,3-dimethyl-1H-purine-2,6(3H,7H)-dione]: below 100 nM; `Cn1c(=O)c2c(nc(Oc3cccc(OC(F)(F)F)c3)n2Cc2cc(Cl)cc(Cl)c2)n(C)c1=O` [Compound 204, 7-(3,5-dichlorobenzyl)-1,3-dimethyl-8-(3-(trifluoromethoxy)phenoxy)-1H-purine-2,6(3H,7H)-dione]: below 100 nM.
With `COc1cc(Cn2c(Oc3cccc(OC(F)(F)F)c3)nc3c2c(=O)n(C)c(=O)n3C)ccc1Cl` [Compound 205, 7-(4-chloro-3-methoxybenzyl)-1,3-dimethyl-8-(3-(trifluoromethoxy)phenoxy)-1H-purine-2,6(3H,7H)-dione], the IC50 was 100 to 500 nM.
The same measure, in the same setting: with `Cc1cc(Cn2c(Oc3cccc(OC(F)(F)F)c3)nc3c2c(=O)n(C)c(=O)n3C)ccc1Cl` [Compound 206, 7-(4-chloro-3-methylbenzyl)-1,3-dimethyl-8-(3-(trifluoromethoxy)phenoxy)-1H-purine-2,6(3H,7H)-dione] the figure was below 100 nM.
`Cc1c(Oc2nc3c(c(=O)n(C)c(=O)n3C)n2Cc2ccc(Cl)cc2)cccc1C(F)(F)F` [Compound 207, 7-(4-chlorobenzyl)-1,3-dimethyl-8-(2-methyl-3-(trifluoromethyl)phenoxy)-1H-purine-2,6(3H,7H)-dione]: the IC50 was 2000 to 10000 nM.
On the same count and under the same terms, next, `CCCCCCOc1nc2c(c(=O)n(C)c(=O)n2C)n1Cc1ccc(Cl)cc1` [Compound 215, 7-(4-Chlorobenzyl)-8-(hexyloxy)-1,3-dimethyl-1H-purine-2,6(3H,7H)-dione]: below 100 nM; `Cn1c(=O)c2c(nc(OCC3CCCC3)n2Cc2ccc(Cl)cc2)n(C)c1=O` [Compound 216, 7-(4-Chlorobenzyl)-8-(cyclopentylmethoxy)-1,3-dimethyl-1H-purine-2,6(3H,7H)-dione]: 100 to 500 nM.
With `Cn1c(=O)c2c(nc(OCCCCCO)n2Cc2ccc(Cl)cc2)n(C)c1=O` [Compound 217, 7-(4-Chlorobenzyl)-8-((5-hydroxypentyl)oxy)-1,3-dimethyl-1H-purine-2,6(3H,7H)-dione], the IC50 is 2000 to 10000 nM.

The target of another assay is T2, hTRPC4 (Homo sapiens, UniProt Q9UBN4).
T2 sequence (Q9UBN4 1-977): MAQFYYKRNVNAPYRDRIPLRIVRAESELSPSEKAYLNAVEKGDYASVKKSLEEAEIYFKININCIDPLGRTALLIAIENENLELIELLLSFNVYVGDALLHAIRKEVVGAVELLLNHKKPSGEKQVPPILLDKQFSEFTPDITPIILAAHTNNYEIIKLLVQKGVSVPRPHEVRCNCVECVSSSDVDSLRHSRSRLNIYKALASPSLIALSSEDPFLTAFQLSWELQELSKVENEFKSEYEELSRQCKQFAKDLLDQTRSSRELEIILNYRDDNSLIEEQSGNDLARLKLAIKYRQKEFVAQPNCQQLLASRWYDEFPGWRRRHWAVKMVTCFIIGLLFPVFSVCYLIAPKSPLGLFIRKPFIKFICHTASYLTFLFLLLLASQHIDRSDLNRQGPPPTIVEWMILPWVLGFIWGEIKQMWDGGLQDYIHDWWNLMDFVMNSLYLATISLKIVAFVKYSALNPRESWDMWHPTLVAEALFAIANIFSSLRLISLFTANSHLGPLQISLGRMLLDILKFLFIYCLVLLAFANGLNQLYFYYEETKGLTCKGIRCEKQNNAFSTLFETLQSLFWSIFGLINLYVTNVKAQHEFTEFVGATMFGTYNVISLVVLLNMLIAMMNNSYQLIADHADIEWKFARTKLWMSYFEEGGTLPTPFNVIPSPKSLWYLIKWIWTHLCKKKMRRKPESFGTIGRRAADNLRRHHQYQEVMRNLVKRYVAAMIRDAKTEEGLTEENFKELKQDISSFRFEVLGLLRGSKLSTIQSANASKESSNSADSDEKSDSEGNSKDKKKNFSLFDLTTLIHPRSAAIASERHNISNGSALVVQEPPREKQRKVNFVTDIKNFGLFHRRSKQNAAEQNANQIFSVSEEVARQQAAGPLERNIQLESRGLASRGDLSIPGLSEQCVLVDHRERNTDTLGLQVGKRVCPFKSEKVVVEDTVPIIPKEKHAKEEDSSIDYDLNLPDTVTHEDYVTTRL
Briefly: Whole-cell patch clamp, block of TRPC4 inward current. The settings on record: read-out: hTRPC4 Patch Inwd (nM) (All Batches). In kind it is cell-based. (The patch-clamp technique gives a direct electrical read-out from membranes.)
Consider `Cn1c(=O)c2c(nc(Oc3cccc(OC(F)(F)F)c3)n2Cc2ccc(Cl)cc2)n(C)c1=O` [Compound 142, 7-(4-chlorobenzyl)-1,3-dimethyl-8-(3-(trifluoromethoxy)phenoxy)-1H-purine-2,6(3H,7H)-dione], for which the IC50 was below 100 nM.
